Biological target: T1, GVIA iPLA2 (Homo sapiens, UniProt O60733)
T1 sequence (O60733 1-806): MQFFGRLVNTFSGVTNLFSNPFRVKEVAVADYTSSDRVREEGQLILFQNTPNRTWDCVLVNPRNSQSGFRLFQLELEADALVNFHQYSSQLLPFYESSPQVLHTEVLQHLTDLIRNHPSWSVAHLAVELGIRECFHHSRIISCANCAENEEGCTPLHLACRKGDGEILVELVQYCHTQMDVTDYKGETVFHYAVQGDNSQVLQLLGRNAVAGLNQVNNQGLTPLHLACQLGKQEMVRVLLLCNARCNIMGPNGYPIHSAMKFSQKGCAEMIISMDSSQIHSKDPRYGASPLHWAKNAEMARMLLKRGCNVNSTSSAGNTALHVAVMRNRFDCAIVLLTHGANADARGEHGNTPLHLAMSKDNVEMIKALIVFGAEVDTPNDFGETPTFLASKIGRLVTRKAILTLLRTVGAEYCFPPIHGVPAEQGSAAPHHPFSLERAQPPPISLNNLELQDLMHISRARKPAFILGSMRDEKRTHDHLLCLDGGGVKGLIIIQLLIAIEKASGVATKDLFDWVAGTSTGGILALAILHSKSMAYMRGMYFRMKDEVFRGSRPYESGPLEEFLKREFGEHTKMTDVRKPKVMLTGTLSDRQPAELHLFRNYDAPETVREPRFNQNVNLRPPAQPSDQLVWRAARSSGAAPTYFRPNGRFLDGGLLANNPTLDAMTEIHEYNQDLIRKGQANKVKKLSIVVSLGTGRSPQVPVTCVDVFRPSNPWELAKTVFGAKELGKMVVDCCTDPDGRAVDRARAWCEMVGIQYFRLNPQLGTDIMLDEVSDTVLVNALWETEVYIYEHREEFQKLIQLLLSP
Assay: hydrogen/deuterium exchange mass spectrometry
Assay type: binding

## CCCCCCCCSCC(=O)C(F)(F)F [Compound 3]
Peptide region 481-493
  Average % Deuteration (Presence of OTFP): 27%
Peptide region 514-524
  Average % Deuteration (Presence of OTFP): 48%
Peptide region 542-562
  Average % Deuteration (Presence of OTFP): 51%
Peptide region 630-655
  Average % Deuteration (Presence of OTFP): 48%
Peptide region 656-664
  Average % Deuteration (Presence of OTFP): 49%
Peptide region 770-778
  Average % Deuteration (Presence of OTFP): 43%
